Results on 18 molecules are retold here after US20070049593A1 (priority 2004, published 2007).

For the experiment, the target named is T1, HCV polymerase (Hepatitis C virus genotype 1b, UniProt P26663).
T1 construct: a region encoding NS5B (J Virol 1991 March, 65(3), 1105-13, 544 amino acids after deletion of 47 amino acids on the C-terminal); 6xHis (C); made in house; host or cells: Escherichia coli
Put plainly: biochemical. Set-up: species or system HCV BK strain. In short, it runs like this: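 Recombinant HCV BK-strain NS5B (C-terminal 47 aa deleted, His6-tagged, E. coli), 0.5 μg/ml, run with 5 μg/ml in vitro-transcribed RNA template (polyU/3′X), ATP/GTP/CTP 50 μM, UTP 2 μM plus [3H]UTP, pH 7.5, 25° C, 90 min. TCA-precipitated RNA counted by scintillation; IC50 from activity with vs without compound.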

Each structure is given as a SMILES string. Where a name gives a salt, the structure may show the parent alone.

Usually IC50 stands for the concentration at which inhibition is half-maximal. A lower IC50 goes with inhibition by little substance.

T1 sequence (P26663 2420-2963): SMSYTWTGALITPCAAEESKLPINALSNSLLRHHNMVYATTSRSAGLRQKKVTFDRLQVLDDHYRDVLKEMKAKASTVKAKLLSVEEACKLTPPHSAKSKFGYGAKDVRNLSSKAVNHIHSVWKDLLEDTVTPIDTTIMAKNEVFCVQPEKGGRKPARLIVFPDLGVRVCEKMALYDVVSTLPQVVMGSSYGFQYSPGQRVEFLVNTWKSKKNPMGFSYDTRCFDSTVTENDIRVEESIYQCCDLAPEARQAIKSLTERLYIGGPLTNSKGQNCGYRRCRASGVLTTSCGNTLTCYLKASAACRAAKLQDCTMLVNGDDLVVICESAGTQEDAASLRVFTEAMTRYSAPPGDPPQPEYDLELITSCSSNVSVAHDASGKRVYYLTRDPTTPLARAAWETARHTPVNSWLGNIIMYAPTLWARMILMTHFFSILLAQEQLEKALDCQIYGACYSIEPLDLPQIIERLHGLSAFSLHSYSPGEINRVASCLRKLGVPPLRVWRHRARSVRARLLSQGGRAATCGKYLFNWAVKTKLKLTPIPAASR

In turn, `CN(C)CCN1CCn2c(c(C3CCCCC3)c3ccc(C(=O)O)cc32)-c2ccc(OCc3ccccn3)cc21` [Example 1-543, 13-cyclohexyl-5-(2-dimethylaminoethyl)-3-(pyridin-2-ylmethoxy)-6,7-dihydro-5H-benzo[5,6][1,4]diazepino[7,1-a]indole-10-carboxylic acid trihydrochloride] returned an IC50 below 100 nM.

Molecule `COCC[C@@H]1CCCN(CCN2CCn3c(c(C4CCCCC4)c4ccc(C(=O)O)cc43)-c3cc(F)c(F)cc32)C1` [Example 1-544, 13-cyclohexyl-2,3-difluoro-5-{2-[(S)-3-(2-methoxyethyl)piperidin-1-yl]ethyl}-6,7-dihydro-5H-benzo[5,6][1,4]diazepino[7,1-a]indole-10-carboxylic acid dihydrochloride] gave an IC50 below 100 nM.

Molecule `Cc1ccc2c(c1)N(CCN1CCCC(C(=O)N(C)C)C1)CCn1c-2c(C2CCCCC2)c2ccc(C(=O)O)cc21` (stereo not drawn) [Example 1-545, 13-cyclohexyl-5-[2-(3-dimethylcarbamoylpiperidin-1-yl)ethyl]-3-methyl-6,7-dihydro-5H-benzo[5,6][1,4]diazepino[7,1-a]indole-10-carboxylic acid dihydrochloride] displayed a half-maximal inhibitory concentration (IC50) below 100 nM.

Take `COCCOc1ccc2c(c1)N(CCN1CCCCC1)CCn1c-2c(C2CCCCC2)c2ccc(C(=O)O)cc21` [Example 1-546, 13-cyclohexyl-3-(2-methoxyethoxy)-5-[2-(piperidin-1-yl)ethyl]-6,7-dihydro-5H-benzo[5,6][1,4]diazepino[7,1-a]indole-10-carboxylic acid dihydrochloride]: the IC50 was below 100 nM.

`COCCO[C@@H]1CCCN(CCN2CCn3c(c(C4CCCCC4)c4ccc(C(=O)O)cc43)-c3ccc(C)cc32)C1` [Example 1-547, 13-cyclohexyl-5-{2-[(R)-3-(2-methoxyethoxy)piperidin-1-yl]ethyl}-3-methyl-6,7-dihydro-5H-benzo[5,6][1,4]diazepino[7,1-a]indole-10-carboxylic acid dihydrochloride] returned an IC50 below 100 nM.

For the molecule `CN(C)CCN1CCn2c(c(C3CCCCC3)c3ccc(C(=O)O)cc32)-c2ccc(OCCOc3ccccc3)cc21` [Example 1-548, 13-cyclohexyl-5-(2-dimethylaminoethyl)-3-(2-phenoxyethoxy)-6,7-dihydro-5H-benzo[5,6][1,4]diazepino[7,1-a]indole-10-carboxylic acid dihydrochloride], the IC50 is below 100 nM.

Consider `O=C(O)c1ccc2c(C3CCCCC3)c3n(c2c1)CCN(CCN1CCCCC1)c1ncccc1-3` [Example 1-549, 12-cyclohexyl-5-[2-(piperidin-1-yl)ethyl]-6,7-dihydro-5H-4,5,7a-triazadibenzo[a,e]azulene-9-carboxylic acid dihydrochloride], for which the IC50 is below 100 nM.

The molecule `O=C(O)c1ccc2c(C3CCCCC3)c3n(c2c1)CCN(CCN1CCCOCC1)c1cc(F)c(F)cc1-3` [Example 1-550, 13-cyclohexyl-2,3-difluoro-5-[2-(1,4-oxazepan-4-yl)ethyl]-6,7-dihydro-5H-benzo[5,6][1,4]diazepino[7,1-a]indole-10-carboxylic acid dihydrochloride] had an IC50 below 100 nM.

For `COCC1CCCCN(CCN2CCn3c(c(C4CCCCC4)c4ccc(C(=O)O)cc43)-c3ccc(C)cc32)C1` (stereo not drawn) [Example 1-551, 13-cyclohexyl-5-[2-(3-methoxymethylazepan-1-yl)ethyl]-3-methyl-6,7-dihydro-5H-benzo[5,6][1,4]diazepino[7,1-a]indole-10-carboxylic acid dihydrochloride], the IC50 was below 100 nM.

`CN1CCn2c(c(C3CCCCC3)c3ccc(C(=O)O)cc32)-c2cccc(OCCN3CCCCC3)c21` [Example 1-552, 13-cyclohexyl-5-methyl-4-[2-(piperidin-1-yl)ethoxy]-6,7-dihydro-5H-benzo[5,6][1,4]diazepino[7,1-a]indole-10-carboxylic acid dihydrochloride] had an IC50 below 100 nM.

For the molecule `CC(=O)N(C)CC[C@@H]1CCCN(CCN2CCn3c(c(C4CCCCC4)c4ccc(C(=O)O)cc43)-c3ccc(C)cc32)C1` [Example 1-553, 5-(2-{(S)-3-[2-(N-acetyl-N-methylamino)ethyl]piperidin-1-yl}ethyl)-13-cyclohexyl-3-methyl-6,7-dihydro-5H-benzo[5,6][1,4]diazepino[7,1-a]indole-10-carboxylic acid dihydrochloride], the IC50 is below 100 nM.

The molecule `Cc1ccc2c(c1)N(CCN1CCCCC1)CCn1c-2c(C2CCCCC2)c2ccc(C(=O)O)c(C)c21` [Example 1-554, 13-cyclohexyl-3,9-dimethyl-5-[2-(piperidin-1-yl)ethyl]-6,7-dihydro-5H-benzo[5,6][1,4]diazepino[7,1-a]indole-10-carboxylic acid dihydrochloride] returned an IC50 below 100 nM.

Take `Cc1ccc2c(c1)N(CCN1CCC[C@@H](CCN(C)C)C1)CCn1c-2c(C2CCCCC2)c2ccc(C(=O)O)cc21` [Example 1-555, 13-cyclohexyl-5-{2-[(S)-3-(2-dimethylaminoethyl)piperidin-1-yl]ethyl}-3-methyl-6,7-dihydro-5H-benzo[5,6][1,4]diazepino[7,1-a]indole-10-carboxylic acid dihydrochloride]: the IC50 is below 100 nM.

`Cc1ccc2c(c1)N(CCN1CCC[C@@H](CC(=O)O)C1)CCn1c-2c(C2CCCCC2)c2ccc(C(=O)O)cc21` [Example 1-556, 5-[2-((S)-3-carboxymethylpiperidin-1-yl)ethyl]-13-cyclohexyl-3-methyl-6,7-dihydro-5H-benzo[5,6][1,4]diazepino[7,1-a]indole-10-carboxylic acid dihydrochloride] came in with an IC50 below 100 nM.

Take `Cc1ccc2c(c1)N(CCN1CCC[C@@H](CCN(C)C(=O)OC(C)(C)C)C1)CCn1c-2c(C2CCCCC2)c2ccc(C(=O)O)cc21` [Example 1-557, 5-(2-{(S)-3-[2-(N-tert-butoxycarbonyl-N-methylamino)ethyl]piperidin-1-yl)ethyl)-13-cyclohexyl-3-methyl-6,7-dihydro-5H-benzo[5,6][1,4]diazepino[7,1-a]indole-10-carboxylic acid monohydrochloride]: the IC50 was below 100 nM.

Molecule `Cc1ccc2c(c1)N(C1CCN(C(=O)OCc3ccccc3)CC1)CCn1c-2c(C2CCCCC2)c2ccc(C(=O)O)cc21` [Example 1-558, 5-(1-benzyloxycarbonylpiperidin-4-yl)-13-cyclohexyl-3-methyl-6,7-dihydro-5H-benzo[5,6][1,4]diazepino[7,1-a]indole-10-carboxylic acid] registered an IC50 of 100 to 1000 nM.

In the case of `Cc1ccc2c(c1)N(CCN1CCC[C@@H](CCN(C)C(=O)N(C)C)C1)CCn1c-2c(C2CCCCC2)c2ccc(C(=O)O)cc21` [Example 1-559, 13-cyclohexyl-3-methyl-5-(2-{(S)-3-[2-(trimethylureido)ethyl]piperidin-1-yl}ethyl)-6,7-dihydro-5H-benzo[5,6][1,4]diazepino[7,1-a]indole-10-carboxylic acid dihydrochloride], the IC50 is below 100 nM.

`CN(C)CCN1CCn2c(c(C3CCCCC3)c3ccc(C(=O)O)cc32)-c2ccc(OCc3ccc(Cl)s3)cc21` [Example 1-560, 3-(5-chlorothiophen-2-ylmethoxy)-13-cyclohexyl-5-(2-dimethylaminoethyl)-6,7-dihydro-5H-benzo[5,6][1,4]diazepino[7,1-a]indole-10-carboxylic acid dihydrochloride] gave an IC50 below 100 nM.
